The record followed here is PMC5773580, “A synthetic combinatorial approach to disabling deviant Hedgehog signaling” (Scientific Reports, 2018).

Values joined by “and” are separate entries in the source; they are usually repeats but may differ in a detail not shown here. Identical values can stand only once.

For this experiment, the target named is T1, HDAC6 (Homo sapiens, UniProt Q9UBN7).
T1 construct: purchased BPS Bioscience #50051-11
T1 sequence (Q9UBN7 1-1215): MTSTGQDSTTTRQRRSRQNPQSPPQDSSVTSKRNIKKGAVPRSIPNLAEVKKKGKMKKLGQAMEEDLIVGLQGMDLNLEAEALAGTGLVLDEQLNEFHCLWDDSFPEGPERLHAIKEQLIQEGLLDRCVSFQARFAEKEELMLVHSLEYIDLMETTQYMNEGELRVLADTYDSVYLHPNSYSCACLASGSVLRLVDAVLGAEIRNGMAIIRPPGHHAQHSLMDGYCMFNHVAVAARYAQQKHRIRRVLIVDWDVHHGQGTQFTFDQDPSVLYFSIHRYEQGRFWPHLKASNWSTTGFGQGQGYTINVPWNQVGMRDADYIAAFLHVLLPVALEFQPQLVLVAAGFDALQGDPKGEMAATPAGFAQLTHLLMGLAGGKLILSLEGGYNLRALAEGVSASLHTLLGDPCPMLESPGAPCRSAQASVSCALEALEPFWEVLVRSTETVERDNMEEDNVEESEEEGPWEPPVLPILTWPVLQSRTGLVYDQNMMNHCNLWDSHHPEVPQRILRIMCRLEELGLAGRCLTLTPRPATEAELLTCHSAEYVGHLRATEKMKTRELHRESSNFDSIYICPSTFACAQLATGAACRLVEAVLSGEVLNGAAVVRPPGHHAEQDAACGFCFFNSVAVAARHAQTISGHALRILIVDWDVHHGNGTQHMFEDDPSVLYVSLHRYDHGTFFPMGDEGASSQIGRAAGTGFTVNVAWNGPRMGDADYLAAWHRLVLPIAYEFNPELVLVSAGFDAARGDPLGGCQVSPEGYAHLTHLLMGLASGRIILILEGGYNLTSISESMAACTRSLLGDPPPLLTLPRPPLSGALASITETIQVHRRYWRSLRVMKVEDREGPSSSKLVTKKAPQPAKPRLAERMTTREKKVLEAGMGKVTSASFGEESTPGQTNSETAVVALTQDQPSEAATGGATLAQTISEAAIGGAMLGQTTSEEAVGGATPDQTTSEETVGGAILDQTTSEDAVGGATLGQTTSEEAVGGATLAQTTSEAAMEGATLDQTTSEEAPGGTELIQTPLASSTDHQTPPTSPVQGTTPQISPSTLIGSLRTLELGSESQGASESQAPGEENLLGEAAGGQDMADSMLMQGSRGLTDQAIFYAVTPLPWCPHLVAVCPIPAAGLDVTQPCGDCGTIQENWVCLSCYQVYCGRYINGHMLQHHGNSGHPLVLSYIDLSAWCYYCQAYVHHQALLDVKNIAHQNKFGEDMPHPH
The experiment can be described thus: In vitro HDAC profiling (deacetylation assay), HDAC6. In kind it is biochemical. Conditions: for HDAC Activity (Fluorescent counts): Repeat1/Repeat 2. Here is the method: HDAC profiling was performed at BPS Bioscience (San Diego, CA). All of the compounds are dissolved in DMSO. A series of dilutions of the compounds were prepared with 10% DMSO in HDAC assay buffer (#50031) and 5 µl of the dilution was added to a 50 µl reaction so that the final concentration of DMSO is 1% in all of reactions. All of the enzymatic reactions were conducted in duplicate at 37 °C for 30 mins, except that the enzyme reactions for HDAC11 were at room temperature for 3 hrs. All of the reactions were performed in a 50 µl mixture containing HDAC assay buffer, 5 µg BSA, an HDAC substrate [HDAC Substrate 3 (BPS number 50037) or HDAC Class 2a Substrate 1 (BPS number 50040)], an HDAC enzyme (#50051-11) and a test compound. After enzymatic reactions, 50 μl of HDAC Developer (#50030) was added to each well and the plate was incubated at room temperature for an additional 20 mins. Fluorescence intensity was measured at an excitation of 360 nm and an emission of 460 nm using a Tecan Infinite M1000 microplate reader. HDAC activity assays were performed in duplicates at each concentration. The fluorescent intensity data were analyzed using the computer software, Graphpad Prism. In the absence of the compound, the fluorescent intensity (Ft) in each data set was defined as 100% activity. In the absence of HDAC, the fluorescent intensity (Fb) in each data set was defined as 0% activity. The percent activity in the presence of each compound was calculated according to the following equation: %activity = (F − Fb)/(Ft − Fb), where F = the fluorescent intensity in the presence of the compound. The values of % activity versus a series of compound concentrations were then plotted using non-linear regression analysis of Sigmoidal dose-response curve generated with the equation Y = B + (T − B)/1 + 10((LogIC50 − X) × Hill Slope), where Y = percent activity, B = minimum percent activity, T = maximum percent activity, X = logarithm of compound and Hill Slope = slope factor or Hill coefficient. The IC50 value was determined by the concentration causing a half-maximal percent activity.

As a reminder, the IC50 is the point on the concentration scale where inhibition reaches its midpoint. High values mean a need for much substance, low ones inhibition by little substance. As for `O=C(CCCCCCC(=O)Nc1ccc(Cl)c(C(=O)Nc2ccc(NC(=O)c3cc(Cl)ccc3Cl)cc2)c1)NO` [IHR-SAHA], the “HDAC Activity (Fluorescent counts)” value is 17916 Fluorescent counts and 17639 Fluorescent counts (HDAC6, WW01 0 Log nM); 16713 Fluorescent counts and 17763 Fluorescent counts (HDAC6, WW01 0.5 Log nM); 14605 Fluorescent counts and 14491 Fluorescent counts (HDAC6, WW01 1 Log nM); 11120 Fluorescent counts and 11971 Fluorescent counts (HDAC6, WW01 1.5 Log nM); 7800 Fluorescent counts and 7793 Fluorescent counts (HDAC6, WW01 2 Log nM); 5185 Fluorescent counts and 5345 Fluorescent counts (HDAC6, WW01 2.5 Log nM). The “HDAC Activity (Fluorescent counts)” value is 4209 Fluorescent counts and 4174 Fluorescent counts (HDAC6, WW01 3 Log nM); 3548 Fluorescent counts and 3756 Fluorescent counts (HDAC6, WW01 3.5 Log nM); 3616 Fluorescent counts and 3660 Fluorescent counts (HDAC6, WW01 4 Log nM); 18352 Fluorescent counts and 17865 Fluorescent counts (HDAC6, WW01 -0.5 Log nM). In addition, 47 nM corresponded to half-maximal inhibition (in vitro deacetylation assay, duplicates) (IC50).
